# Results published in ChEMBL document CHEMBL1142084, “In vitro activities of tigecycline and eight other antimicrobials against different Nocardia species identified by molecular methods” (2007).
# Legend:
# Format in all cases: functional
# Nocardia carnea = assay: Antimicrobial activity against Nocardia carnea after 72 hrs by microdilution method
# Nocardia nova = assay: Antimicrobial activity against Nocardia nova after 72 hrs by microdilution method
# Nocardia abscessus = assay: Antimicrobial activity against Nocardia abscessus after 72 hrs by microdilution method
# Nocardia veterana = assay: Antimicrobial activity against Nocardia veterana after 72 hrs by microdilution method
# Nocardia cyriacigeorgica = assay: Antimicrobial activity against Nocardia cyriacigeorgica after 72 hrs by microdilution method
# [1] = system: Nocardia otitidiscaviarum; assay: Antimicrobial activity against Nocardia otitidiscaviarum after 72 hrs by microdilution method
# Nocardia brasiliensis = assay: Antimicrobial activity against Nocardia brasiliensis after 72 hrs by microdilution method
# Nocardia sp. = assay: Antimicrobial activity against Nocardia sp. after 72 hrs by microdilution method
# Nocardia farcinica = assay: Antimicrobial activity against Nocardia farcinica after 72 hrs by microdilution method
# Nocardia transvalensis = assay: Antimicrobial activity against Nocardia transvalensis after 72 hrs by microdilution method
# Nocardia beijingensis = assay: Antimicrobial activity against Nocardia beijingensis after 72 hrs by microdilution method
smiles,measurement,setting,value
C[C@@H](O)[C@H]1C(=O)N2C(C(=O)O)=C(SCCNC=N)C[C@H]12 [IMIPENEM ANHYDROUS],MIC,Nocardia carnea,0.5 µg/mL
same,MIC,Nocardia nova,0.12 µg/mL
same,MIC,Nocardia abscessus,0.5 µg/mL
same,MIC,Nocardia veterana,≤ 0.06 µg/mL
same,MIC,Nocardia cyriacigeorgica,≤ 0.06 µg/mL
same,MIC,[1],0.5 µg/mL
same,MIC,Nocardia brasiliensis,1 µg/mL
same,MIC,Nocardia sp.,≤ 0.06 µg/mL
same,MIC,Nocardia farcinica,1 µg/mL
same,MIC,Nocardia transvalensis,> 64 µg/mL
same,MIC,Nocardia beijingensis,0.5 µg/mL
C[C@@H](O)[C@H]1C(=O)N2C(C(=O)O)=C(S[C@@H]3CN[C@H](C(=O)Nc4cccc(C(=O)O)c4)C3)[C@H](C)[C@H]12 [ERTAPENEM],MIC,Nocardia carnea,2 µg/mL
same,MIC,Nocardia nova,0.5 µg/mL
same,MIC,Nocardia abscessus,0.5 µg/mL
same,MIC,Nocardia veterana,0.25 µg/mL
same,MIC,Nocardia cyriacigeorgica,≤ 0.06 µg/mL
same,MIC,[1],1 µg/mL
same,MIC,Nocardia brasiliensis,2 µg/mL
same,MIC,Nocardia sp.,0.25 µg/mL
same,MIC,Nocardia farcinica,4 µg/mL
same,MIC,Nocardia transvalensis,> 64 µg/mL
same,MIC,Nocardia beijingensis,2 µg/mL
COc1c(N2C[C@@H]3CCCN[C@@H]3C2)c(F)cc2c(=O)c(C(=O)O)cn(C3CC3)c12 [MOXIFLOXACIN],MIC,Nocardia carnea,≤ 0.06 µg/mL
same,MIC,Nocardia nova,2 µg/mL
same,MIC,Nocardia abscessus,1 µg/mL
same,MIC,Nocardia veterana,0.5 µg/mL
same,MIC,Nocardia cyriacigeorgica,≤ 0.06 µg/mL
same,MIC,[1],≤ 0.06 µg/mL
same,MIC,Nocardia brasiliensis,≤ 0.06 µg/mL
same,MIC,Nocardia sp.,≤ 0.06 µg/mL
same,MIC,Nocardia farcinica,≤ 0.06 µg/mL
same,MIC,Nocardia transvalensis,0.12 µg/mL
same,MIC,Nocardia beijingensis,≤ 0.06 µg/mL
NCC[C@H](O)C(=O)N[C@@H]1C[C@H](N)[C@@H](O[C@H]2O[C@H](CN)[C@@H](O)[C@H](O)[C@H]2O)[C@H](O)[C@H]1O[C@H]1O[C@H](CO)[C@@H](O)[C@H](N)[C@H]1O [AMIKACIN],MIC,Nocardia carnea,0.5 µg/mL
same,MIC,Nocardia nova,0.12 µg/mL
same,MIC,Nocardia abscessus,≤ 0.06 µg/mL
same,MIC,Nocardia veterana,0.25 µg/mL
same,MIC,Nocardia cyriacigeorgica,≤ 0.06 µg/mL
same,MIC,[1],1 µg/mL
same,MIC,Nocardia brasiliensis,1 µg/mL
same,MIC,Nocardia sp.,0.25 µg/mL
same,MIC,Nocardia farcinica,1 µg/mL
same,MIC,Nocardia transvalensis,32 µg/mL
same,MIC,Nocardia beijingensis,≤ 0.06 µg/mL
CN(C)c1ccc(O)c2c1C[C@H]1C[C@H]3[C@H](N(C)C)C(O)=C(C(N)=O)C(=O)[C@@]3(O)C(O)=C1C2=O [MINOCYCLINE],MIC,Nocardia carnea,0.5 µg/mL
same,MIC,Nocardia nova,1 µg/mL
same,MIC,Nocardia abscessus,≤ 0.06 µg/mL
same,MIC,Nocardia veterana,1 µg/mL
same,MIC,Nocardia cyriacigeorgica,≤ 0.06 µg/mL
same,MIC,[1],0.5 µg/mL
same,MIC,Nocardia brasiliensis,1 µg/mL
same,MIC,Nocardia sp.,0.25 µg/mL
same,MIC,Nocardia farcinica,1 µg/mL
same,MIC,Nocardia transvalensis,1 µg/mL
same,MIC,Nocardia beijingensis,≤ 0.06 µg/mL
C[C@@H](O)[C@H]1C(=O)N2C(C(=O)O)=C(S[C@@H]3CN[C@H](C(=O)N(C)C)C3)[C@H](C)[C@H]12 [MEROPENEM],MIC,Nocardia carnea,1 µg/mL
same,MIC,Nocardia nova,0.5 µg/mL
same,MIC,Nocardia abscessus,0.25 µg/mL
same,MIC,Nocardia veterana,0.12 µg/mL
same,MIC,Nocardia cyriacigeorgica,≤ 0.06 µg/mL
same,MIC,[1],1 µg/mL
same,MIC,Nocardia brasiliensis,1 µg/mL
same,MIC,Nocardia sp.,≤ 0.06 µg/mL
same,MIC,Nocardia farcinica,2 µg/mL
same,MIC,Nocardia transvalensis,> 64 µg/mL
same,MIC,Nocardia beijingensis,2 µg/mL
CC(=O)NC[C@H]1CN(c2ccc(N3CCOCC3)c(F)c2)C(=O)O1 [LINEZOLID],MIC,Nocardia carnea,≤ 0.06 µg/mL
same,MIC,Nocardia nova,0.12 µg/mL
same,MIC,Nocardia abscessus,≤ 0.06 µg/mL
same,MIC,Nocardia veterana,0.25 µg/mL
same,MIC,Nocardia cyriacigeorgica,0.12 µg/mL
same,MIC,[1],≤ 0.06 µg/mL
same,MIC,Nocardia brasiliensis,1 µg/mL
same,MIC,Nocardia sp.,≤ 0.06 µg/mL
same,MIC,Nocardia farcinica,0.12 µg/mL
same,MIC,Nocardia transvalensis,1 µg/mL
same,MIC,Nocardia beijingensis,≤ 0.06 µg/mL
CN(C)c1cc(NC(=O)CNC(C)(C)C)c(O)c2c1C[C@H]1C[C@H]3[C@H](N(C)C)C(O)=C(C(N)=O)C(=O)[C@@]3(O)C(O)=C1C2=O [TIGECYCLINE],MIC,Nocardia carnea,≤ 0.06 µg/mL
same,MIC,Nocardia nova,0.5 µg/mL
same,MIC,Nocardia abscessus,≤ 0.06 µg/mL
same,MIC,Nocardia veterana,0.12 µg/mL
same,MIC,Nocardia cyriacigeorgica,≤ 0.06 µg/mL
same,MIC,[1],≤ 0.06 µg/mL
same,MIC,Nocardia brasiliensis,≤ 0.06 µg/mL
same,MIC,Nocardia sp.,≤ 0.06 µg/mL
same,MIC,Nocardia farcinica,1 µg/mL
same,MIC,Nocardia transvalensis,2 µg/mL
same,MIC,Nocardia beijingensis,0.25 µg/mL
